Where two headings read alike, the source gives them in different places.
Legend:
CYP3A4 = assay: Cytochrome P450 induction screening assay, mRNA induction in human cryopreserved hepatocytes; type: in vitro ADME; conditions: 24 hours exposure
From the text: Induction of cytochrome P450 enzymes is associated with an increased prevalence of clinical drug-drug interactions. The clinical consequences of induction may be therapeutic failure caused by a decreased systemic exposure of the drug itself or a co-administered therapy, or toxicity as a result of increased bioactivation. Cytochrome P450 (CYP450) induction assay has been used to understand the potential drug-drug interaction liabilities in drug discovery stage. Human cryopreserved hepatocytes (Life Technologies, Carlsbad, USA) were thawed and cultured in collagen I coated 96-well plates with a density of 52,000 cells/well. After attachment, hepatocyte maintenance medium (HMM; Lonza, Switzerland) was changed after cells were pre-cultured overnight. […] Medium change was then performed and cells were exposed for 24 hours to test compounds, positive inducer compounds, or vehicle (0.1% DMSO), respectively. At the end of the compound exposure period, medium was removed and cells lysed using 100 μL/well MagNA Pure LC RNA isolation tissue lysis buffer (Roche Diagnostics AG, Rotkreuz, Switzerland). […] mRNA isolation was performed using the MagNA Pure 96 system (Roche Diagnostics AG, Rotkreuz, Switzerland) and the respective cellular RNA large volume kit (Roche Diagnostics AG, Rotkreuz, Switzerland) from thawed samples diluted 1:1 with PBS. […] The resulting cDNA was diluted with 40 μL of H2O before using for qRT-PCR. qRT-PCR was performed by using the forward and the reverse primer, the corresponding Universal Probe Library (all from Microsynth, Balgach, Switzerland) and the Taqman Fast advanced master mix (Applied Biosystems), on an ABI 7900 machine (Applied Biosystems). qRT-PCR Ct-values for the respective P450s were put into relation to the Ct-value of RN18S1 (microsynth, Balgach, Switzerland) of the same sample. Doing so, a respective Δct-value was calculated. Using the average of all Δct-values for the vehicle control samples, a ΔΔct-value was calculated for each sample (ΔΔct-value(sample)=Δct-value(sample)−average of Δct-value of all vehicle controls). […] The individual fold induction values were then averaged per treatment condition (usually n=3 biological replicates).

human TLR8 = human TLR8 (Homo sapiens (Human), UniProt Q9NR97); assay: HEK-Blue-hTLR8 cells assay and selectivity index; type: cell-based; conditions: EC50(TLR8) value/EC50(TLR7) value
Method: A stable HEK-Blue-hTLR8 cell line was purchased from InvivoGen (Cat.#: HEK-Blue-htlr8, San Diego, Calif., USA). These cells were designed for studying the stimulation of human TLR8 by monitoring the activation of NF-κB. […] Therefore the reporter expression was regulated by the NF-κB promoter upon stimulation of human TLR8 for 20 hrs. The cell culture supernatant SEAP reporter activity was determined using QUANTI-Blue™ kit (Cat.#: rep-qb1, Invivogen, San Diego, Ca, USA) at a wavelength of 640 nm, a detection medium that turns purple or blue in the presence of alkaline phosphatase.
HEK-Blue-hTLR8 cells were incubated at a density of 250,000˜450,000 cells/mL in a volume of 180 μL in a 96-well plate in Dulbecco's Modified Eagle's medium (DMEM) containing 4.5 g/L glucose, 50 U/mL penicillin, […], […], 2 mM L-glutamine, 10% (V/V) heat-inactivated fetal bovine serum for 24 hrs. Then the HEK-Blue-hTLR8 cells were incubated with addition of 20 μL test compound in a serial dilution in the presence of final DMSO at 1% and perform incubation under 37° C. in a CO2 incubator for 20 hrs. Then 20 μL of the supernatant from each well was incubated with 180 μL Quanti-blue substrate solution at 37° C. for 2 hours and the absorbance was read at 620˜655 nm using a spectrophotometer. The signalling pathway that TLR8 activation leads to downstream NF-κB activation has been widely accepted, and therefore similar reporter assay was also widely used for evaluating TLR8 agonist (Tsuneyasu Kaisho and Takashi Tanaka, Trends in Immunology, Volume 29, Issue 7, July 2008, […]; Hiroaki Hemmi et al, Nature Immunology 3, 196-200 (2002)).
The ratio of TLR8 agonism activity compared to TLR7 agonism activity was defined as the selectivity index (EC50 (TLR8) value/EC50(TLR7) value) and calculated accordingly.

[1] = Single dose PK after 1 mg/kg intravenous dosing to rat; type: in vivo, Male Wister-Han Rats; conditions: IV 1 mpk
Method: The single dose PK in Male Wister-Han Rats was performed to assess pharmacokinetic properties of tested compounds. Two groups of animals were dosed via bolus intravenous (IV) of the respective compound. Blood samples (approximately 20 μL) were collected via Jugular vein or an alternate site at 5 min, 15 min, 30 min, 1 hr, 2 hr, 4 hr, 7 hr and 24 hr post-dose for IV group. Blood samples were placed into tubes containing EDTA-K2 anticoagulant and centrifuged at 5000 rpm for 6 min at 4° C. to separate plasma from the samples. Following centrifugation, the resulting plasma was transferred to clean tubes for bioanalysis on LC/MS/MS. The pharmacokinetic parameters were calculated using non-compartmental module of WinNonlin® Professional 6.2. […] Therefore, compounds of present invention potentially could lead to less dose frequency and lower dose in clinical application.

[2] = 7 hrs (row printed 8**), read-out: Mean plasma concentration
[3] = male, Wistar-Han, plasma, iv, 1 mg/kg, 0.083 h
[4] = male, Wistar-Han, plasma, iv, 1 mg/kg, 0.25 h
[5] = male, Wistar-Han, plasma, iv, 1 mg/kg, 0.5 h
[6] = male, Wistar-Han, plasma, iv, 1 mg/kg, 1 h
[7] = male, Wistar-Han, plasma, iv, 1 mg/kg, 2 h
[8] = male, Wistar-Han, plasma, iv, 1 mg/kg, 4 h

Sequence of human TLR8 (Q9NR97 27-1041): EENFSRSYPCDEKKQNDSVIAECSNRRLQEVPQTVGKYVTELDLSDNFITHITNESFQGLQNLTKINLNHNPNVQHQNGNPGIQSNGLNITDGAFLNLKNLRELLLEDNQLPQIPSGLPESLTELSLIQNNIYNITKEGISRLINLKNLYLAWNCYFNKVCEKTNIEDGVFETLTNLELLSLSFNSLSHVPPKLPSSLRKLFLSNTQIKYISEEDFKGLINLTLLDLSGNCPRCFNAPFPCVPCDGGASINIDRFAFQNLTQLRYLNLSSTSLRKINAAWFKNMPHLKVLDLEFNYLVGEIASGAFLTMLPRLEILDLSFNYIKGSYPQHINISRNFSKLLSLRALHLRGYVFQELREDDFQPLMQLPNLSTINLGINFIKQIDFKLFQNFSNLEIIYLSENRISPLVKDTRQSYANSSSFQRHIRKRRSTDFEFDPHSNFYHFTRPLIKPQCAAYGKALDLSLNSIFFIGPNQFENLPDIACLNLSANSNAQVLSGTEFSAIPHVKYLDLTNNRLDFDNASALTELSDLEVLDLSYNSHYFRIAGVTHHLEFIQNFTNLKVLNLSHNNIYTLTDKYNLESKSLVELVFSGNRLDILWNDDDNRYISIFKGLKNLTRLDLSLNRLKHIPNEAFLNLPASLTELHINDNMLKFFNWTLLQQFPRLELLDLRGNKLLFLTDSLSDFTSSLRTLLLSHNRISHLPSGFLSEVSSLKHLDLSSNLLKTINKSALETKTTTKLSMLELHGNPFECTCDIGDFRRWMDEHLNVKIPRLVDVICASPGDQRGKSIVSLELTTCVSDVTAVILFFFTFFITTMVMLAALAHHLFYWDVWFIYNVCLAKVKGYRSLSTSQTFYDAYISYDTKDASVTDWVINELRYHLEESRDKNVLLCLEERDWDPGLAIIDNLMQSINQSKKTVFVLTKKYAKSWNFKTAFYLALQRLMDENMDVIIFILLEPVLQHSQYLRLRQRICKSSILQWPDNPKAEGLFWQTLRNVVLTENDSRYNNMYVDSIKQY

SMILES	Relative induction of Positive control (10 μM Rifampicin) (%) (CYP3A4)	CO [1]	concentration at 4 h [1, 2]	concentration at 0.083 h [1, 3]	concentration at 0.25 h [1, 4]	concentration at 0.5 h [1, 5]	concentration at 1 h [1, 6]	concentration at 2 h [1, 7]	concentration at 4 h [1, 8]	other results
CCCS(=N)(=O)c1nc(N)c2[nH]c(=O)n(Cc3ccccc3)c2n1 (single isomer, unassigned) [Example 4-A, 6-Amino-9-benzyl-2-(propylsulfonimidoyl)-7H-purin-8-one]	−0.63%	–	–	–	–	–	–	–	–	–
CCCS(=N)(=O)c1nc(N)c2[nH]c(=O)n(Cc3ccccc3)c2n1 (single isomer, unassigned) [Example 4-B, 6-Amino-9-benzyl-2-(propylsulfonimidoyl)-7H-purin-8-one]	−0.90%	–	–	–	–	–	–	–	–	–
CCS(=N)(=O)c1nc(N)c2[nH]c(=O)n(Cc3ccc(Cl)cc3)c2n1 (single isomer, unassigned) [Example 70-A, 6-Amino-9-[(4-chlorophenyl)methyl]-2-(ethylsulfonimidoyl)-7H-purin-8-one]	0.42%	3052 nM	6.28 nM	3050 nM	1340 nM	718 nM	354 nM	110 nM	20.5 nM	Selective index (human TLR8): >18518
CCS(=N)(=O)c1nc(N)c2[nH]c(=O)n(Cc3ccc(Cl)cc3)c2n1 (single isomer, unassigned) [Example 70-B, 6-Amino-9-[(4-chlorophenyl)methyl]-2-(ethylsulfonimidoyl)-7H-purin-8-one]	−0.42%	2782 nM	16.7 nM	–	–	–	–	–	–	AUC0-inf [1]: 1.894 µM·h; CL [1]: 48.7 mL/min/kg; concentration at 4 h ([1]; 0.083 h, read-out: Mean plasma concentration): 2782 nM; concentration at 4 h ([1]; 0.25 h, read-out: Mean plasma concentration): 1434 nM; concentration at 4 h ([1]; 0.5 h, read-out: Mean plasma concentration): 862 nM; concentration at 4 h ([1]; 1 h, read-out: Mean plasma concentration): 461 nM; concentration at 4 h ([1]; 2 h, read-out: Mean plasma concentration): 173 nM; concentration at 4 h ([1]; 4 h, read-out: Mean plasma concentration): 29.1 nM
CCS(=N)(=O)c1nc(N)c2[nH]c(=O)n(Cc3ccc(C)cc3)c2n1 (single isomer, unassigned) [Example 71-A, 6-Amino-2-(ethylsulfonimidoyl)-9-(p-tolylmethyl)-7H-purin-8-one]	−0.10%	1848 nM	–	1850 nM	1000 nM	537 nM	292 nM	115 nM	18.2 nM	–

— patent US9708325B2, “Sulfonimidoylpurinone compounds and derivatives for the treatment and prophylaxis of virus infection” (Hoffmann-La Roche Inc., priority 2015, dated 2017)
